Reference: paper PMC3879368, “Characterisation of a Multi-ligand Binding Chemoreceptor CcmL (Tlp3) of Campylobacter jejuni” (PLoS Pathogens, 2014)
Several values for one entry are separate records, joined by “and”; a condition that tells them apart may be missing. Equal entries are not always repeated. Entries after “also recorded” stand apart in the source; their conditions may differ. Where two headings read alike, the source gives them in different places.

Columns and labels:
[1] = system: recombinant Tlp3 periplasmic sensory domain peptide; assay: Amino acid and small molecule array binding assay; parameters: species or system Campylobacter jejuni; key: Y: positive binding significantly above background; N: binding not significantly above background; settings: compounds covalently bound to an epoxide group
Method: (§1) The array assay presents the compounds covalently bound to an epoxide group resulting in a high probability of a single molecular orientation. The plate assay relies on non-covalent charge and hydrophobic/hydrophilic interactions for presentation of the molecules offering a different presentation to the array.
(§2) Amino acid and small molecule arrays and plate based binding assays were performed as previously described.. […] SPR experiments were performed using a Biacore T100 biosensor system (GE- healthcare) at 25°C in 1× PBS pH 7.2 at a flow rate of 30 µl/min. […] Amino acids were prepared in 1 × PBS pH 7.2 and serially diluted from 0.0125 to 0.2 mM. The amino acids were loaded to the sensor chip using single-cycle kinetics, i.e. after the injection of five amino acid dilutions the chip was regenerated with EDTA. Subsequently, the chip was re-loaded with Ni^2+ and His-Tlp3 before the injection of the next amino acid to be tested. A 10 min dissociation time was allowed after the addition of each analyte. SPR signals were analyzed using the Biacore Evaluation software to determine KD.

[2] = system: recombinant Tlp3 periplasmic sensory domain peptide; assay: 96-well plate binding assay; parameters: species or system Campylobacter jejuni; key: Y: positive binding significantly above background; N: binding not significantly above background; settings: non-covalent presentation
Method: as §1, §2

[3] = system: C. jejuni 11168-O; format: cell-based, Campylobacter jejuni; settings: for Chemotactic response: nutrient depleted chemotaxis assay, 11168-O vs Δtlp3; as to Chemotactic response: key: +: positive response (chemoattractant); −: negative response (chemorepellent)
[4] = system: C. jejuni 11168-O Δtlp3; format: cell-based, Campylobacter jejuni; settings: for Increase in bacterial numbers around ligand plug, Δtlp3 compared to wild type: repellents; for Viable counts of C. jejuni associated with ligand plug: Δtlp3, plug with 2 mM ligand, 37°C, 4 h; for Reduction in bacterial numbers migrating towards ligand, Δtlp3 compared to wild type: attractants
[5] = system: recombinant Cj1564 (Tlp3) periplasmic sensory domain peptide; assay: 1H STD-NMR analysis, single ligand and competition; format: binding, Campylobacter jejuni; settings: for STD-NMR binding to Tlp3 (in words): ligand alone with Tlp3; for Binding preference in competition STD experiments: two ligands together with Tlp3
Method: Recombinant Tlp3 (1 mg/mL, 100 µL) dissolved in D2O (99.99% D Cambridge Isotopes) containing 50 mM NaCl and 50 mM KH2PO4 and added to various ligands (1 mg/mL, 150 µL ∼150 mole equivalents) also dissolved in D2O (99.99% D Cambridge Isotopes) containing 50 mM NaCl and 50 mM KH2PO4 to give a total volume of 250 µL in a 3 mm NMR tube for NMR analysis. Control samples were prepared in an identical manner without Tlp3 added. All NMR experiments were performed on a Bruker Avance 600 MHz spectrometer, equipped with a 5-mm TXI probe with triple axis gradients at 283 K without sample spinning. ^1H NMR spectra were acquired with 32 scans, a 2 s relaxation delay over a spectral width of 6000 Hz. Solvent suppression of the residual HDO peak was achieved by continuous low-power presaturation pulse during the relaxation delay. […] A 100 µs delay between each soft pulse was applied, resulting in a total saturation time of 2 s and 2 K scans.
Data were obtained with an interspersed acquisition of pseudo-two-dimensional on-resonance and off-resonance spectra in order to minimize the effects of temperature and magnet instability. On- and off-resonance spectra were processed separately, and the final STD-NMR spectrum was obtained by subtracting the individual on- and off-resonance spectra, resulting in less subtraction artefacts. Relative STD effects were calculated according to the equation ASTD = (I0−Isat)/I0 = ISTD/I0 by comparing the intensity of the signals in the STD-NMR spectrum (ISTD) with signal intensities of a reference spectrum (I0). The STD signal with the highest intensity was set to 100% and other STD signals were calculated accordingly. A spin lock field of 10 ms was applied to remove unwanted background protein signals. […] Control STD-NMR experiments were performed using an identical experimental setup and the same ligand concentration but in the absence of the protein.

[6] = target: His-Tlp3 (Campylobacter jejuni, UniProt Q0P864); assay: biochemical; format: binding; settings: for SPR interaction with Tlp3 (in words): two-fold serial dilution between 12.5 and 200 µM
Sequence of His-Tlp3 (Q0P864 entry or part of it): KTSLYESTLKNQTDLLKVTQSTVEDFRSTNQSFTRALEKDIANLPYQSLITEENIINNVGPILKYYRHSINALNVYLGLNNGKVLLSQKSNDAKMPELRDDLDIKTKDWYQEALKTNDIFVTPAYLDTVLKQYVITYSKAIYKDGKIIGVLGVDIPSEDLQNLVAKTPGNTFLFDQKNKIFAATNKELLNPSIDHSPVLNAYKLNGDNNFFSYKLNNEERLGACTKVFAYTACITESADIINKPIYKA
Method: as §2
All interactions present were tested with a two-fold serial dilution between 12.5 and 200 µM. (TIF) Click here for additional data file.

[7] = wild type 11168-O, plug with 2 mM ligand, 37°C, 4 h
[8] = Binding Affinity (KD), SPR, 25°C, 1× PBS pH 7.2

| SMILES | Array binding [1] | Plate assay [2] | Chemotactic response [3] | Viable counts of C. jejuni associated with ligand plug [3, 7] | Increase in bacterial numbers around ligand plug, Δtlp3 compared to wild type [4] [log] | Viable counts of C. jejuni associated with ligand plug [4] | STD-NMR binding to Tlp3 (in words) ([5]; 283 K) | Reduction in bacterial numbers migrating towards ligand, Δtlp3 compared to wild type [4] [log] | Kd [6, 8] | also measured |
| --- | --- | --- | --- | --- | --- | --- | --- | --- | --- | --- |
| N=C(N)NCCC[C@H](N)C(=O)O [Arginine] | N | Y | − | 1.3 × 10^6 cfu/ml | 1 | 6.8 × 10^7 cfu/ml | Binding was observed |  |  | Binding preference in competition STD experiments [5]: preferential binding of arginine over lysine |
| N[C@@H](CC(=O)O)C(=O)O [Aspartate] | N | Y | + | 7.8 × 10^6 cfu/ml |  | 3.7 × 10^3 cfu/ml |  | 3 |  |  |
| O=C(O)/C=C/C(=O)O [Fumaric Acid] |  | Y | + | 4.14 × 10^6 cfu/ml |  | 9 × 10^2 cfu/ml |  | 4 |  | Kd [6]: > 10000 µM |
| N[C@H]1C(O)O[C@H](CO)[C@@H](O)[C@@H]1O (stereo partly shown) [Glucosamine] |  | Y | − | 1.68 × 10^3 cfu/ml | 3 | 7.8 × 10^6 cfu/ml | No signals were detected |  | 7.77 µM | Dissociation rate from Tlp3 (in words) ([6]; SPR): slow disassociation rates |
| CC[C@H](C)[C@H](N)C(=O)O [Isoleucine] | Y | Y | + | 6 × 10^6 cfu/ml |  | 3.6 × 10^2 cfu/ml | Binding was observed | 4 |  | Binding preference in competition STD experiments [5]: binds preferentially over arginine; also recorded: binds preferentially over lysine |
| NCCCC[C@H](N)C(=O)O [Lysine] | N | Y | − | 2.2 × 10^3 cfu/ml | 2 | 2.4 × 10^5 cfu/ml | Binding was observed |  | ~2.8 µM and 2.8 µM | Binding affinity of lysine relative to arginine, fold stronger ([6]; ratio of SPR KD values): ~14 fold |
| O=C(O)CC(O)C(=O)O (stereo not shown) [Malic Acid] |  | Y | + | 9 × 10^5 cfu/ml |  | 1.13 × 10^3 cfu/ml | No signals were detected | 2 |  | Dissociation rate from Tlp3 (in words) ([6]; SPR): slow disassociation rates |
| c1ncc2nc[nH]c2n1 [Purine] |  | Y | + | 1.4 × 10^6 cfu/ml |  | 1.08 × 10^5 cfu/ml | Binding was observed | 1 | 38.3 µM | STD effect of H2 protons, fold lesser than H6 ([5]; pyrimidine ring protons, 283 K): ~5 fold; Binding preference in competition STD experiments [5]: binds preferentially over lysine; also recorded: binds preferentially over arginine |
| O=C(O)CCC(=O)O [Succinic Acid] |  | Y | − |  | 1 | 2 × 10^7 cfu/ml |  |  | 33.2 µM | Viable counts of C. jejuni associated with ligand plug [3]: 1.5 × 10^6 cfu/ml |
| Cc1ncc(C[n+]2csc(CCO)c2C)c(N)n1 [Thiamine] |  | Y | − |  | 1 | 9 × 10^6 cfu/ml |  |  | < 50 µM | Viable counts of C. jejuni associated with ligand plug [3]: 4 × 10^5 cfu/ml |
| C[C@H](N)C(=O)O [alanine] |  |  |  |  |  |  |  |  |  | SPR interaction with Tlp3 (in words) [6]: No interaction observed |
| NC(=O)C[C@H](N)C(=O)O [asparagine] |  |  |  |  |  |  |  |  |  | SPR interaction with Tlp3 (in words) [6]: No interaction observed |
| O=C(O)CCC(=O)C(=O)O [α-ketoglutarate] | Y | Y |  |  |  |  |  |  |  | Kd ([6]; SPR, 25°C, 1× PBS pH 7.2, read-out: Binding Affinity (KD)): 296 µM; Chemotaxis assay outcome (in words) ([3]; data not shown): not definitive |
